Measurements: patent publication US6492369B2, “Therapeutic agents for drug dependence” (Santen Pharmaceutical Co., Ltd., priority 1998, dated 2002)
Where a name gives a salt, the structure may show the parent alone.

Key:
Male Sprague-Dawley rats [1] = assay: Conditioned place preference test (CPP method): potential of test compound and addicting drugs to induce psychological dependence; format: in vivo, rat
From the text: Effects of 1,4-(diphenylalkyl)piperazine derivatives on the potency of induction of psychological dependence by addicting drugs were studied by using the conditioned place preference test (CPP method) according to the report of Suzuki et al. (Life Science, 57, 1277-1284 (1995)).
Test of Potential to Induce Psychological Dependence of Test Compound and Addicting Drugs
Male Sprague-Dawley rats, body weight: about 250 g, 5.5 weeks old, were used in groups of eight.
An apparatus was used wherein a rectangular parallelepiped box was divided into two compartments at the center in length by a sliding partition and one compartment was made white, while the other compartment was made black.
A test compound and addicting drugs to be used were dissolved in physiological saline.
The solutions of the test compound (0.3 mg/ml, 1 mg/ml and 3 mg/ml solutions) were administered subcutaneously to the rats (1 ml/kg) The solutions of the addicting drugs were administered subcutaneously to morphine administration groups (2 mg/ml, 4 mg/ml and 8 mg/ml solutions of morphine hydrochloride) and intraperitonealy to cocaine administration groups (2 mg/ml, 4 mg/ml and 8 mg/ml solutions of cocaine hydrochloride) and to methamphetamine administration groups (1 mg/ml, 2 mg/ml and 4 mg/ml) (1 ml/kg respectively). Physiological saline was administered by the same method as the method of administration of each administration group (1 ml/kg respectively).
The rats were placed in the box from which the partition had been removed. Each cumulative time the rats had spent in the white compartment and the black compartment respectively was measured for 15 minutes, and the spent time in the compartment where the rats had spent a longer time (pre-value) was determined from a difference between them. This operation was carried out once a day for three days.
The box was divided into two compartments by the partition. The solution of the addicting drug or the solution of the test compound was administered subcutaneously to the rats. The rats were confined for 50 minutes to the compartment in which the rats had spent a shorter time in pre-conditioning. The next day, physiological saline was administered subcutaneously to the rats and, next, the rats were confined for 50 minutes to the compartment in which the rats had spent a longer time. This training was repeated three times (2×3 days).
The partition was removed from the box, and the conditioned rats were placed in the box. Each cumulative time the rats spent in the white compartment and the black compartment respectively was measured for 15 minutes, and the spent time in the compartment where the rats had spent a longer time (post value) was determined from a difference between them.
The cumulative time the rats had spent in the respective compartments was measured by using an infrared sensor.
The potential to induce psychological dependence was evaluated by using CPP scores (sec.) showing a motivational effect of the conditioning drug as an index.
The motivational effects of the addicting drugs and the test compound, which were the conditioning drugs, were determined by the following equation.
CPP score (sec.)=post value (sec.)−pre value (sec.)

Male Sprague-Dawley rats [2] = assay: Conditioned place preference test (CPP method): effect of test compound on potential of addicting drugs to induce psychological dependence; format: in vivo, rat; settings: for Inhibition rate (%) of CPP score: average of eight
From the text: (Life Science, 57, 1277-1284 (1995)). Effect of Test Compound on Potential of Addicting Drugs to Induce Psychological Dependence Male Sprague-Dawley rats, body weight: about 250 g, 5.5 weeks old, were used in groups of eight. An apparatus was used wherein a rectangular parallelepiped box was divided into two compartments at the center in length by a sliding partition and one compartment was made white, while the other compartment was made black. A test compound and addicting drugs to be used were dissolved in physiological saline. The solutions of the test compound (1 mg/ml and 3 mg/ml) were administered subcutaneously to the rats (1 ml/kg). […] The rats were placed in the box from which the partition had been removed. Each cumulative time the rats had spent in the white compartment and the black compartment respectively was measured for 15 minutes, and the spent time in the compartment where the rats had spent a longer time (pre value) was determined from a difference between them. This operation was carried out once a day for three days. The box was divided into two compartments by the partition. The solution of the test compound was administered to the rats, and 30 minutes later, the solution of the addicting drug was further administered to the rats. The rats were confined for 50 minutes to the compartment in which the rats had spent a shorter time in pre-conditioning. The next day, only physiological saline was administered to the rats, and next the rats were confined for 50 minutes to the compartment in which the rats had spent a longer time. This training was repeated three times (2×3 days). The partition was removed from the box, and the conditioned rats were placed in the box. Each cumulative time the rats had spent in the white compartment and the black compartment respectively was measured for 15 minutes, and the spent time in the compartment where the rats had spent a longer time (post value) was determined from a difference between them. The cumulative time the rats had spent in the respective compartments was measured by using an infrared sensor. The potential of the addicting drugs to induce psychological dependence was evaluated by using CPP scores (sec.) showing a motivational effect of the conditioning drug as an index. CPP score (sec.)=post value (sec.)−pre value (sec.) The effects of the test compound on the potential of the addicting drugs to induce psychological dependence was determined by the following equation as inhibition rates (%). Inhibition rate (%)=[(A−B)/A]×100 A: CPP score (sec.) of physiological saline administration group B: CPP score (sec.) of test compound administration group

[3] = 2 mg/kg (morphine s.c., cocaine i.p.), average of eight
[4] = 4 mg/kg (morphine s.c., cocaine i.p.), average of eight
[5] = 8 mg/kg (morphine s.c., cocaine i.p.), average of eight

**Q.** With `COC(=O)[C@H]1[C@@H](OC(=O)c2ccccc2)C[C@@H]2CC[C@H]1N2C.Cl` [Cocaine, cocaine hydrochloride] as the compound, how does the “CPP score” value (Male Sprague-Dawley rats [1]; [3]) read?
**A.** The value was 141 s.

**Q.** What about the “CPP score” value (Male Sprague-Dawley rats [1]; [4]) of the same compound?
**A.** The value was 178 s.

**Q.** What about the “CPP score” value (Male Sprague-Dawley rats [1]; [5]) of the same compound?
**A.** Its value is 259 s.

**Q.** And the “Potential to induce psychological dependence (motivational effect, in words)” value (Male Sprague-Dawley rats [1]; all doses tested)?
**A.** The value was “appetitive effects”.

**Q.** Which results are given for `COc1ccc(CCN2CCN(CCCc3ccccc3)CC2)cc1OC` [Compound A, 1-[2-(3,4-dimethoxyphenyl)ethyl]-4-(3-phenylpropyl)piperazine dihydrochloride]?
**A.** CPP score (Male Sprague-Dawley rats [1]; male, Sprague-Dawley, rat, in vivo, sc, 0.3 mg/kg, 6 days): -37 s; CPP score (Male Sprague-Dawley rats [1]; male, Sprague-Dawley, rat, in vivo, sc, 1 mg/kg, 6 days): -45 s; CPP score (Male Sprague-Dawley rats [1]; male, Sprague-Dawley, rat, in vivo, sc, 3 mg/kg, 6 days): -64 s; Potential to induce psychological dependence (motivational effect, in words) (Male Sprague-Dawley rats [1]; rat, in vivo): no potential to induce psychological dependence; Inhibition rate (%) of CPP score (Male Sprague-Dawley rats [2]; Cocaine administration group (cocaine hydrochloride 4 mg/kg i.p.), Compound A 1 mg/kg s.c. 30 min before): 26%; Inhibition rate (%) of CPP score (Male Sprague-Dawley rats [2]; Cocaine administration group (cocaine hydrochloride 4 mg/kg i.p.), Compound A 3 mg/kg s.c. 30 min before): 55%; Inhibition rate (%) of CPP score (Male Sprague-Dawley rats [2]; Methamphetamine administration group (methamphetamine hydrochloride 2 mg/kg i.p.), Compound A 1 mg/kg s.c. 30 min before): 55%; Inhibition rate (%) of CPP score (Male Sprague-Dawley rats [2]; Methamphetamine administration group (methamphetamine hydrochloride 2 mg/kg i.p.), Compound A 3 mg/kg s.c. 30 min before): 57%; Inhibition rate (%) of CPP score (Male Sprague-Dawley rats [2]; Morphine administration group (morphine hydrochloride 8 mg/kg s.c.), Compound A 1 mg/kg s.c. 30 min before): 38%; Inhibition rate (%) of CPP score (Male Sprague-Dawley rats [2]; Morphine administration group (morphine hydrochloride 8 mg/kg s.c.), Compound A 3 mg/kg s.c. 30 min before): 50%; Effect on potential of addicting drugs to induce psychological dependence (in words) (Male Sprague-Dawley rats [2]; morphine, cocaine and methamphetamine administration groups, 1 and 3 mg/kg): apparently inhibited the potential of the addicting drugs to induce psychological dependence

**Q.** For `CN1CC[C@]23c4c5ccc(O)c4O[C@H]2[C@@H](O)C=C[C@H]3[C@H]1C5.Cl` [Morphine, morphine hydrochloride], which “CPP score” value (Male Sprague-Dawley rats [1]; [3]) is on record?
**A.** Its value is 171 s.

**Q.** And the “CPP score” value (Male Sprague-Dawley rats [1]; [4])?
**A.** The value was 187 s.

**Q.** What about the “CPP score” value (Male Sprague-Dawley rats [1]; [5]) of the same compound?
**A.** The value was 228 s.

**Q.** And the “Potential to induce psychological dependence (motivational effect, in words)” value (Male Sprague-Dawley rats [1]; all doses tested)?
**A.** Its value is “appetitive effects”.

**Q.** `CN[C@@H](C)Cc1ccccc1.Cl` [Methamphetamine, methamphetamine hydrochloride] was tested. Which “Potential to induce psychological dependence (motivational effect, in words)” value (Male Sprague-Dawley rats [1]; all doses tested) did it give?
**A.** The value was “appetitive effects”.

**Q.** And the “CPP score” value (Male Sprague-Dawley rats [1]; methamphetamine 1 mg/kg i.p., average of eight)?
**A.** The value was 155 s.

**Q.** What about the “CPP score” value (Male Sprague-Dawley rats [1]; methamphetamine 2 mg/kg i.p., average of eight) of the same compound?
**A.** The value was 224 s.

**Q.** What about the “CPP score” value (Male Sprague-Dawley rats [1]; methamphetamine 4 mg/kg i.p., average of eight) of the same compound?
**A.** The value was 151 s.
